Experimental findings from ChEMBL document CHEMBL4421717, “Antagonists and agonists of bitter taste receptors and uses thereof” (2012) are described below.

Common to all, as to type: functional, cell-based
In experiment [1] the target is T1, Taste receptor type 2 member 50 (Homo sapiens) (UniProt P59544).
T1 sequence (whole entry): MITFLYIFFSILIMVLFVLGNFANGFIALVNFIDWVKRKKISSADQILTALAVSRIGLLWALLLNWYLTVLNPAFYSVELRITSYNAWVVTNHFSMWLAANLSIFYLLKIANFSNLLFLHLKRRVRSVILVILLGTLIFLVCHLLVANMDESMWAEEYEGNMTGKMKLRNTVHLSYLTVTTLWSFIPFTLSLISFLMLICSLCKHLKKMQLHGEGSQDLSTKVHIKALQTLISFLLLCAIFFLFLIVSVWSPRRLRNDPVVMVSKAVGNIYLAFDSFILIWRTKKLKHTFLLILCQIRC
The experiment is described as follows: Activity at recombinant human N-terminal rat ST3 receptor-fused TAS2R50 expressed in HEK293T cells co-expressing Galpha16gust44 assessed as effect on andrographolide-induced intracellular calcium level at 100 uM by FLIPR assay. On the technique in general: A change in cytosolic calcium serves as a functional read-out for many receptors and channels.

For experiment [2], the target named is Taste receptor type 2 member 40 (Homo sapiens) (UniProt P59535). The experiment is described as follows: Antagonist activity at recombinant human N-terminal rat ST3 receptor-fused TAS2R40 expressed in HEK293T cells co-expressing Galpha16gust44 assessed as inhibition of cohumulone-induced intracellular calcium level at 100 uM by FLIPR assay.
Taste receptor type 2 member 40 (Homo sapiens), sequence (P59535 whole entry, the tested form may be a part): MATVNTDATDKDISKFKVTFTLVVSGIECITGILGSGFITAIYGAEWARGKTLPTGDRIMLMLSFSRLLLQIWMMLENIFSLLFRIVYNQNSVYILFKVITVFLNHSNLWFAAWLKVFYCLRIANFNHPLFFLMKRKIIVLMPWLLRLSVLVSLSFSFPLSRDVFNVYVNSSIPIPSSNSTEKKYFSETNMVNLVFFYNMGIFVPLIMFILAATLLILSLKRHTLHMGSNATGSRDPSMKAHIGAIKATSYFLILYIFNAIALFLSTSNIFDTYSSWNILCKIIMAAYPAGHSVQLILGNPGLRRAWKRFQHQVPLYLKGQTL
Experiment [3] concerns the target T2, Taste receptor type 2 member 1 (Homo sapiens) (UniProt Q9NYW7).
T2 sequence (whole entry): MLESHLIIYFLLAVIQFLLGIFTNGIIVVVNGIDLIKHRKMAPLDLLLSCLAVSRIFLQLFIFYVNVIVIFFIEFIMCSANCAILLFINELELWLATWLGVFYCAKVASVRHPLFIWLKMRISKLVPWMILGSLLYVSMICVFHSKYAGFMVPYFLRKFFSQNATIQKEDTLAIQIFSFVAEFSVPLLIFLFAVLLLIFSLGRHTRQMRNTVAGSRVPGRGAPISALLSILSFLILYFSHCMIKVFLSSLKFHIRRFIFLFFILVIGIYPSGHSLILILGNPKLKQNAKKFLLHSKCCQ
The experiment is described as follows: Activity at recombinant human N-terminal rat ST3 receptor-fused TAS2R1 expressed in HEK293T cells co-expressing Galpha16gust44 assessed as effect on trans-isocohumulone-induced intracellular calcium level at 100 uM by FLIPR assay.

Experiment [4] has as its target T3, Taste receptor type 2 member 39 (Homo sapiens) (UniProt P59534).
T3 sequence (whole entry): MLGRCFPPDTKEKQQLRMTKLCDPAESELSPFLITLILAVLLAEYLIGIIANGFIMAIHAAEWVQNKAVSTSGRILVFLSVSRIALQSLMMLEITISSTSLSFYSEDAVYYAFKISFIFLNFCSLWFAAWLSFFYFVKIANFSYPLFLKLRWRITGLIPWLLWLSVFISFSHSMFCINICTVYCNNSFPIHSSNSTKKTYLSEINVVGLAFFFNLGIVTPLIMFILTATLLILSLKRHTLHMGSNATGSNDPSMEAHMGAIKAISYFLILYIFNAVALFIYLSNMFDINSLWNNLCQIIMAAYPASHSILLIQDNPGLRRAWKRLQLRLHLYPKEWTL
As to the kind of experiment: Activity at recombinant human N-terminal rat ST3 receptor-fused TAS2R39 expressed in HEK293T cells co-expressing Galpha16gust44 assessed as effect on epigallocatechin gallate-induced intracellular calcium level at 100 uM by FLIPR assay.

Experiment [5] deals with T4, Taste receptor type 2 member 8 (Homo sapiens) (UniProt Q9NYW2).
T4 sequence (whole entry): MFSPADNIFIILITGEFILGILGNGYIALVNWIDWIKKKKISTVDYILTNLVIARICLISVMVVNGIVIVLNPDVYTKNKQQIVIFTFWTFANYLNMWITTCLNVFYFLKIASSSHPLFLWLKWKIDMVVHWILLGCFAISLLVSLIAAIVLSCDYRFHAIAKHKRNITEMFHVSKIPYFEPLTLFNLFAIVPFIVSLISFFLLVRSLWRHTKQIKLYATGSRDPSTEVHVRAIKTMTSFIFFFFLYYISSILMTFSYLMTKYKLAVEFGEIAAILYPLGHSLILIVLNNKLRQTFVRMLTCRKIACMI
As to the kind of experiment: Activity at recombinant human N-terminal rat ST3 receptor-fused TAS2R8 expressed in HEK293T cells co-expressing Galpha16gust44 assessed as effect on chloramphenicol-induced intracellular calcium level at 100 uM by FLIPR assay.

In experiment [6] the target is T5, Taste receptor type 2 member 43 (Homo sapiens) (UniProt P59537).
T5 sequence (whole entry): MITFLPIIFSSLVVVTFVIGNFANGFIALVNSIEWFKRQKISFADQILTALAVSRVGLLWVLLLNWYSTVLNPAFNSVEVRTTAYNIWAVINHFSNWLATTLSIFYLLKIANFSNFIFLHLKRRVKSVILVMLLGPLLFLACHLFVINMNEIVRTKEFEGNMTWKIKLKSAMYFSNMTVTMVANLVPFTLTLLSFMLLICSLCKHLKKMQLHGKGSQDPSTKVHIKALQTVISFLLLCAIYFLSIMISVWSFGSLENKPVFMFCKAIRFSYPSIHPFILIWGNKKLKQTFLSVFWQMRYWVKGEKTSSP
The experiment is described as follows: Antagonist activity at recombinant human N-terminal rat ST3 receptor-fused TAS2R43 expressed in HEK293T cells co-expressing Galpha16gust44 assessed as reduction in aristolochic acids-induced intracellular calcium level at 100 uM by FLIPR assay.

Experiment [7] deals with T6, Taste receptor type 2 member 38 (Homo sapiens) (UniProt P59533).
T6 sequence (whole entry): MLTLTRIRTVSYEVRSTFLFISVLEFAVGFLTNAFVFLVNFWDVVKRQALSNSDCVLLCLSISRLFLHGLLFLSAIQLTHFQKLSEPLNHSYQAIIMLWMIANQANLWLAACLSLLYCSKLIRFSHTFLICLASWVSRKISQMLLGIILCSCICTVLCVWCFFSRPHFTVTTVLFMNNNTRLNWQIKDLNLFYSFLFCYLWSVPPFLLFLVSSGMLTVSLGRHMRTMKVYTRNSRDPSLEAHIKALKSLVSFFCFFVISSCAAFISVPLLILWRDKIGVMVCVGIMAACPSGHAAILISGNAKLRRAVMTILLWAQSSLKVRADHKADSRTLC
The experiment is described as follows: Activity at recombinant human N-terminal rat ST3 receptor-fused TAS2R38 expressed in HEK293T cells co-expressing Galpha16gust44 assessed as effect on phenylthiocarbamide-induced intracellular calcium level at 100 uM by FLIPR assay.

The source made the active and inactive calls. No cut-off for these calls is given here.

By inhibition is commonly meant the drop in the measured response relative to a control, in per cent. Regarding `C/C1=C\C[C@H](O)[C@@H](C)C[C@H]2OC(=O)[C@@H](C)C2CC1` (some centres undefined), the outcome in experiment [1], in experiment [3], in experiment [4], in experiment [5] and in experiment [7] was inactive. Besides, the inhibition result in experiment [2] was “Active”. In addition, the inhibition in experiment [6] is 100%.

As for `C/C1=C\C[C@H](O)/C(C)=C/[C@H]2OC(=O)[C@@H](C)C2CC1` (some centres undefined), the outcome in experiment [1], in experiment [3], in experiment [4], in experiment [5] and in experiment [7] was inactive. The inhibition entry in experiment [2] and in experiment [6] was “Active” each time.
